Paper PMC7762046, “Fragments of a Wheat Hevein-Like Antimicrobial Peptide Augment the Inhibitory Effect of a Triazole Fungicide on Spore Germination of Fusarium oxysporum and Alternaria solani” (Antibiotics, 2020)
Read-outs that look alike come from different tables or passages of the source. Marks after values point to notes of the source that are not given here. Residues, ends and D or L forms follow the SMILES beside them.

Experiments:
F. oxysporum [1] = format: cell-based, Fusarium oxysporum f. sp. lycopersici (strain F37); conditions: for Expected additive inhibitory effect (Ee), peptide combined with Folicur: calculated by Limpel's formula
Experimental: (§1) The assays were performed in 96-well microtiter plates, using a “checkerboard” design. Fungal conidia were treated with either Folicur® or peptide fragments, each alone, and, in parallel, were subjected to combined treatments wherein the fungicide and one of the WAMP-2-derived peptides were mixed in the same concentration as when used alone. […] However, enhancement potency varied depending on the pathogen, the WAMP fragment, and co-applied concentrations of the WAMP-2 fragments and Folicur®.
(§2) The inhibitory effect of synthesized peptides on conidial germination of fungi was assessed by a microtiterplate assay. Fungal conidia were added to WAMP-2-derived peptides, already dissolved in SDW, to prepare suspensions having final concentrations of 10^5 microconidia/mL (F. oxysporum) or 3 × 10^4 macroconidia/mL (A. solani). Resulting suspensions were incubated at 20–22 °C overnight in wells of 96-well microtiter plates. Control suspensions (with the same final concentrations of conidia) were prepared using SDW. Thereafter, germinated and non-germinated conidia (500 ones of each pathogen per treatment) were counted in treated and control suspensions using an inverted microscope. The average number of conidia germinated in these suspensions was calculated and expressed as the percent of the total number of the counted conidia. In addition, percent germination inhibition in the treated conidia, relative to germination in controls, was determined and indicated as levels of the inhibitory effect in Table 2 and Table 3. Oligopeptides were tested at final concentrations of 50, 100, 200, and 400 µg/mL, which were selected based on previous results of testing of the same WAMP-2-derived peptides for the ability to inhibit spore germination in other Fusarium and Alternaria species.
(§3) In vitro tests involving pathogen sensitization to Folicur® EC 250 were designed under the principle of a microdilution checkerboard assay. Fungal conidia were incubated in 96-well plates in mixtures of the fungicide and each of the peptides at the above-mentioned concentrations in parallel with conidia’ incubation in the solutions of Folicur® or the oligopeptides, alone, used at the same final concentrations as in the mixtures.
(§4) To reveal oligopeptide/fungicide synergy, the Limpel criterion Ee < Er was determined by Formula (1):Ee,% = (X + Y) − XY/100 < Er,% (at p ≤ 0.05),(1) where Ee is the level of an expected additive effect from application of both test compounds; X and Y represent inhibition of the spore germination in % by each antifungal agent used alone; and Er is the percentage of actual inhibition obtained experimentally by co-application of X and Y.
(§5) For each of the two pathogens, microtiter plate tests with synthesized peptides included three independent experimental series. Each experiment included 5 replications of each treatment, 100 conidia per each one (n = 500). Experiments evaluating the sensitizing activity of the tested peptides on leaf disks and detached tomato seedlings were additionally repeated twice. Mean values, standard deviations, standard errors, as well as significant differences from controls and between treatments (t-test for independent variables, p ≤ 0.05), were calculated using STATISTICA v. 6.1 software (StatSoft Inc., Tulsa, OK, USA). Approximation of confidence values (R^2) and regression coefficients were determined using statistical functions of Microsoft Excel 2013 (Microsoft Corp. Redmond, WA, USA).

A. solani [2] = format: cell-based, Alternaria solani (strain MO-VNIIF-9-2018)
Experimental: as §2, with “Oligopeptides were tested at final concentrations of 50, 100, 200, and 400 µg/mL, which were selected based on previous results of testing of the same WAMP-2-derived peptides for the ability to inhibit spore germination in other Fusarium and Alternaria species.” left out
For each of the two pathogens, microtiter plate tests with synthesized peptides included three independent experimental series. […] Mean values, standard deviations, standard errors, as well as significant differences from controls and between treatments (t-test for independent variables, p ≤ 0.05), were calculated using STATISTICA v. […]

A. solani [3] = format: cell-based, Alternaria solani (strain MO-VNIIF-9-2018); remark: listed apart in the source
Experimental: as §1, §2, §3, §4, §5

F. oxysporum [4] = format: cell-based, Fusarium oxysporum f. sp. lycopersici (strain F37)
Experimental: In the first series of these experiments, we tested the inhibitory effect of the fragments against F. oxysporum and compared the inhibitory activity of the fragments to each other and to the entire WAMP-2 peptide. Microconidia of the pathogen were treated to each of the WAMP-2 fragments taken at three or four concentrations ranging between 50 and 200 (WAMP-N, WAMP-G2), 100 and 400 (WAMP-G1), or 50 and 400 (WAMP-C) µg/mL. […] After the treatments, the rate of germinated conidia was determined, expressed as the percent relative to the total number of conidia counted (500 ones per treatment). Effective doses (EDs) providing a 50% or 99.9% inhibition were calculated by probit analysis. The performed analysis confirmed our previous data on the antifungal activity of WAMP-2-derived fragments towards the Fusarium wilt agent.
as §2
Inhibitory concentrations of the peptides providing in vitro 50% or 99% in vitro suppression of conidial germination (ED50, and ED99, respectively) were determined by the probit analysis with the involvement of a linear regression. In a regression equation (Y = ax + b) used in probit analyses, Y is the probit value for 50% or 99% inhibition levels, x values are decimal logarithms of the correspondent concentrations, and a and b represent regression coefficients. The calculated ED99 values from the probit analysis were considered as the minimum fungicidal concentration (MFC), i.e., the lowest concentration of a peptide, used alone, resulting in […] inhibition of conidial germination.
as §5, with “Experiments evaluating the sensitizing activity of the tested peptides on leaf disks and detached tomato seedlings were additionally repeated twice.” left out, “6.1 software (StatSoft Inc., Tulsa, OK, USA).” left out

`N=C(N)NCCC[C@H](NC(=O)[C@H](CS)NC(=O)CNC(=O)[C@H](CCCNC(=N)N)NC(=O)[C@H](CS)NC(=O)[C@H](CCC(N)=O)NC(=O)[C@H](CO)NC(=O)[C@H](CCC(N)=O)NC(=O)[C@H](CS)NC(=O)[C@H](CO)NC(=O)CNC(=O)[C@H](CCCCN)NC(=O)CN)C(=O)O` [WAMP-C] (H-GKGSCQSQCRGCR-OH) was tested, and the “Inhibitory effect on conidial germination (Er), peptide alone” value (from here on “Inhibitory effect … peptide alone”) (F. oxysporum [1]; 50 µg/mL) was 4.3 ^a %, the “Inhibitory effect … peptide alone” value (F. oxysporum [1]; 100 µg/mL) was 6.2 ^b % and the “Inhibitory effect … peptide alone” value (F. oxysporum [1]; 200 µg/mL) was 8.6 ^c %. For the same compound, the “Inhibitory effect … peptide alone” value (F. oxysporum [1]; 400 µg/mL) was 11.6 ^c %, the “ED99 (MFC)” value (A. solani [2]) was 53.4 ^g µg/mL and the “Inhibitory effect … peptide alone” value (A. solani [3]; 100 µg/mL) was 19.0 ^a %. The “Inhibitory effect … peptide alone” value (A. solani [3]; 200 µg/mL) was 31.0 ^b %, the “Inhibitory effect … peptide alone” value (A. solani [3]; 400 µg/mL) was 48.2 ^c % and the “ED99 (MFC)” value (F. oxysporum [4]) was 106.9 ^d µg/mL.

For `CC(C)C[C@H](N)C(=O)N[C@@H](CS)C(=O)N[C@@H](CS)C(=O)NCC(=O)N[C@@H](CCCCN)C(=O)N[C@@H](Cc1ccc(O)cc1)C(=O)NCC(=O)N[C@@H](Cc1ccccc1)C(=O)N[C@@H](CS)C(=O)NCC(=O)N[C@@H](CO)C(=O)NCC(=O)O` [WAMP-G1] (H-LCCGKYGFCGSG-OH), the “Inhibitory effect … peptide alone” value (F. oxysporum [1]; 100 µg/mL) was 1.1 ^a %, the “Inhibitory effect … peptide alone” value (F. oxysporum [1]; 200 µg/mL) was 8.0 ^b % and the “Inhibitory effect … peptide alone” value (F. oxysporum [1]; 400 µg/mL) was 17.5 ^c %. For the same compound, the “ED99 (MFC)” value (A. solani [2]) was 3980.0 ^f µg/mL, the “Inhibitory effect … peptide alone” value (A. solani [3]; 100 µg/mL) was 2.0 ^a % and the “Inhibitory effect … peptide alone” value (A. solani [3]; 200 µg/mL) was 9.8 ^b %. The “Inhibitory effect … peptide alone” value (A. solani [3]; 400 µg/mL) was 21.9 ^c % and the “ED99 (MFC)” value (F. oxysporum [4]) was >10,000 µg/mL.

For `C[C@H](N)C(=O)N[C@@H](CCC(N)=O)C(=O)N[C@@H](CCCNC(=N)N)C(=O)N[C@@H](CS)C(=O)NCC(=O)N[C@@H](CC(=O)O)C(=O)N[C@@H](CCC(N)=O)C(=O)N[C@@H](C)C(=O)N[C@@H](CCCNC(=N)N)C(=O)NCC(=O)N[C@@H](C)C(=O)N[C@@H](CCCCN)C(=O)N[C@@H](CS)C(=O)O` [WAMP-N] (H-AQRCGDQARGAKC-OH), the “Inhibitory effect … peptide alone” value (F. oxysporum [1]; 50 µg/mL) was 12.3 ^a %, the “Inhibitory effect … peptide alone” value (F. oxysporum [1]; 100 µg/mL) was 23.1 ^b % and the “Inhibitory effect … peptide alone” value (F. oxysporum [1]; 200 µg/mL) was 42.7 ^c %. The “ED99 (MFC)” value (F. oxysporum [4]) was 22.7 µg/mL.

“CCGKYGFCGSGDAYC [WAMP-G2, chemically synthesized fragment (residues 18–32) from the central region of WAMP-2]” was tested, and the “Expected additive inhibitory effect (Ee), peptide combined with Folicur” value (from here on “Expected additive inhibitory effect (Ee)”) (F. oxysporum [1]; peptide 50 µg/mL + Folicur 0.005 µg/mL) was 14.5%, the “Observed inhibitory effect (Er), peptide combined with Folicur” value (shortened to “Observed inhibitory effect (Er)”) (F. oxysporum [1]; peptide 50 µg/mL + Folicur 0.005 µg/mL, mean of 3 experiments) was 27.8 ^b % and the “Expected additive inhibitory effect (Ee)” value (F. oxysporum [1]; peptide 50 µg/mL + Folicur 0.01 µg/mL) was 24.8%. The “Observed inhibitory effect (Er)” value (F. oxysporum [1]; peptide 50 µg/mL + Folicur 0.01 µg/mL, mean of 3 experiments) was 36.4 ^b %, the “Expected additive inhibitory effect (Ee)” value (F. oxysporum [1]; peptide 50 µg/mL + Folicur 0.05 µg/mL) was 33.0% and the “Observed inhibitory effect (Er)” value (F. oxysporum [1]; peptide 50 µg/mL + Folicur 0.05 µg/mL, mean of 3 experiments) was 47.4 ^b %. The “Inhibitory effect … peptide alone” value (F. oxysporum [1]; peptide 50 µg/mL, Folicur 0.0 µg/mL, SDW, overnight 20–22 °C, mean of 3 experiments) was 7.0 ^a %, the “Expected additive inhibitory effect (Ee)” value (F. oxysporum [1]; peptide 100 µg/mL + Folicur 0.005 µg/mL) was 28.8% and the “Observed inhibitory effect (Er)” value (F. oxysporum [1]; peptide 100 µg/mL + Folicur 0.005 µg/mL, mean of 3 experiments) was 49.3 ^c %. For the same compound, the “Expected additive inhibitory effect (Ee)” value (F. oxysporum [1]; peptide 100 µg/mL + Folicur 0.01 µg/mL) was 37.7%, the “Observed inhibitory effect (Er)” value (F. oxysporum [1]; peptide 100 µg/mL + Folicur 0.01 µg/mL, mean of 3 experiments) was 53.1 ^c % and the “Expected additive inhibitory effect (Ee)” value (F. oxysporum [1]; peptide 100 µg/mL + Folicur 0.05 µg/mL) was 44.1%. The “Observed inhibitory effect (Er)” value (F. oxysporum [1]; peptide 100 µg/mL + Folicur 0.05 µg/mL, mean of 3 experiments) was 56.8 ^c %, the “Inhibitory effect … peptide alone” value (F. oxysporum [1]; peptide 100 µg/mL, Folicur 0.0 µg/mL, SDW, overnight 20–22 °C, mean of 3 experiments) was 22.4 ^b % and the “Expected additive inhibitory effect (Ee)” value (F. oxysporum [1]; peptide 200 µg/mL + Folicur 0.005 µg/mL) was 41.8%. For the same compound, the “Observed inhibitory effect (Er)” value (F. oxysporum [1]; peptide 200 µg/mL + Folicur 0.005 µg/mL, mean of 3 experiments) was 62.6 ^d %, the “Expected additive inhibitory effect (Ee)” value (F. oxysporum [1]; peptide 200 µg/mL + Folicur 0.01 µg/mL) was 47.1% and the “Observed inhibitory effect (Er)” value (F. oxysporum [1]; peptide 200 µg/mL + Folicur 0.01 µg/mL, mean of 3 experiments) was 74.8 ^d %. The “Expected additive inhibitory effect (Ee)” value (F. oxysporum [1]; peptide 200 µg/mL + Folicur 0.05 µg/mL) was 52.7%, the “Observed inhibitory effect (Er)” value (F. oxysporum [1]; peptide 200 µg/mL + Folicur 0.05 µg/mL, mean of 3 experiments) was 87.1 ^d % and the “Inhibitory effect … peptide alone” value (F. oxysporum [1]; peptide 200 µg/mL, Folicur 0.0 µg/mL, SDW, overnight 20–22 °C, mean of 3 experiments) was 34.1 ^c %. The ED50 (F. oxysporum [4]; 50% inhibition of microconidia germination, probit analysis, SDW, overnight 20–22 °C) was 0.35 ^a µg/mL and the “ED99 (MFC)” value (F. oxysporum [4]; lowest concentration giving 99.9% inhibition of conidial germination, probit analysis) was 35.1 ^b µg/mL.
